Reference: PMC8199001, “Design, Synthesis, and Biological Evaluation of Novel 6H-Benzo[c]chromen-6-one Derivatives as Potential Phosphodiesterase II Inhibitors” (International Journal of Molecular Sciences, 2021)
Entries after “also recorded” stand apart in the source; their conditions may differ.

What was measured:
HT-22 cells = assay: Protection of HT-22 cells against corticosterone-induced neurotoxicity (cell viability); assay type: cell-based
Text: Corticosterone can induce PDE2A, PDE3B, PDE4A, PDE4D, PDE10, and PDE11 expression in HT-22 cells, which results in significant cell lesion. Thus, corticosterone-induced HT-22 neurotoxicity was generally employed as classical cell model to screen PDE-inhibitors for curing neurodegenerative disease, such as AD and PD.
To determine whether compound 1f could promote neuron proliferation and protect HT-22 cells against corticosterone-induced neurotoxicity by PDE2 inhibition, the viability of HT-22 cells was measured in the presence of 100 μM corticosterone (positive control), corticosterone absence (control), and different concentrations of 1f.
We added 943 µL of DMSO solution to 8.2 mg of dexamethasone acetate to obtain a 20 mM stock solution, froze it at −20 °C, and diluted it to 2 mM with serum-containing medium before use. The test compound was dissolved in DMSO to obtain a 20 mM stock solution and stored at −20 °C. Diluted with serum-containing medium to a concentration of 2 × 100, 2 × 50, 2 × 25, 2 × 12.5, 2 × 6.25, 2 × 3.125 μM before use.
After resuscitation, HT-22 cells were cultured in DMEM medium (containing 10% FBS) at 37 °C with 5% CO2. After the cells grew to more than 80% cell fusion, we passaged and seeded the plate, and the density of each well should be 10,000 cells/100 μL/well and cultured for 24 h. After the cells adhered to the wall, drug intervention was given.
10 µL solution of 2 mM dexamethasone acetate was cultured at 37 °C for 30 min. 100 µL drug solution of 2 × 100, 2 × 50, 2 × 25, 2 × 12.5, 2 × 6.25, and 2 × 3.125 μM were added to make the final concentration of dexamethasone acetate 100 μM, and the final concentrations of the drug were 100, 50, 25, 12.5, 6.25, 3.125 μM. After preparation, it took another 24 h to continue the culture. […]
After the incubation, 50 µL of MTT was added to each well, and it needed another 4 h to incubate. […] Finally, the wavelength A 490 was measured. The data were expressed as mean ± sd (n = 5), and one-way anova analysis of variance was used for data statistics; p < 0.05 is defined as a significant difference.

PDE2 = PDE2 (Homo sapiens, UniProt O00408); assay: In vitro PDE2 enzymatic inhibition assay (Bio-cAMP substrate, AlphaScreen detection); assay type: biochemical;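 further: enzyme reaction run 0.5 h, then anti-cAMP acceptor and streptavidin donor beads added for 1 h in the dark before plate reading, compounds serially diluted from DMSO stock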
PDE2, sequence (O00408 whole entry): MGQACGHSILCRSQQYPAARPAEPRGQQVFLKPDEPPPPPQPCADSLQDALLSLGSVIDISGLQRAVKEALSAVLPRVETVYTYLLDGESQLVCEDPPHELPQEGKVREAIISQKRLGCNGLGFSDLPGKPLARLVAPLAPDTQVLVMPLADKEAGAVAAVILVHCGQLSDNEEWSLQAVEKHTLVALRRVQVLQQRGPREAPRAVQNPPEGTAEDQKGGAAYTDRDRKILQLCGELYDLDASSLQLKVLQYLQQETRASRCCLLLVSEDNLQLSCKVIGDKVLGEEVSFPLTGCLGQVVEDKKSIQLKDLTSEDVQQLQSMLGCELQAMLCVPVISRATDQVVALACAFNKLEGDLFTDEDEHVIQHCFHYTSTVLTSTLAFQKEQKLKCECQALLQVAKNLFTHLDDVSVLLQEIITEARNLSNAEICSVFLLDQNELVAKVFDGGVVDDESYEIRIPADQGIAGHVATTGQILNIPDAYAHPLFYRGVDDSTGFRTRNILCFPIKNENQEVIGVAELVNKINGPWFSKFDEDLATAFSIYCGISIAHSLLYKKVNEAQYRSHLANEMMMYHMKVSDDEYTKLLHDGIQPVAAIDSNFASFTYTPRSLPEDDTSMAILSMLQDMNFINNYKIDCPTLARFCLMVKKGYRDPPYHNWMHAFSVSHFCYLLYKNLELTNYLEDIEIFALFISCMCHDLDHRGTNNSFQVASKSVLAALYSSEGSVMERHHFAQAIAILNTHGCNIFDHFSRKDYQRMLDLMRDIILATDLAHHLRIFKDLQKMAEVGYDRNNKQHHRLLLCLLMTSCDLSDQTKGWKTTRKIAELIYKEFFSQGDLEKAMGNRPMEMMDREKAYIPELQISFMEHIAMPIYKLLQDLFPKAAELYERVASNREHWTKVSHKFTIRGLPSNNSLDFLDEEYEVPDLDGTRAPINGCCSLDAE
Description: Preparation of 1*Rection Buffer: we took 1 mL 10*Rection Buffer, added 9 mL ultra-pure water to swirl and mix well, and put it on ice; preparation of PDE2 solution: 210 μL of 1*Rection Buffer were added into a centrifuge tube, then 30 μL PDE2 were added, mixed well, equal to 8-times dilution, and placed on ice; preparation of compound solution with gradient concentration: DMSO was used as the solvent to prepare 10 mM compound solution, and then diluted with 1*Rection Buffer.
We took 2 μL of the diluted compound solution of each concentration into the microplate, added 4 μL PDE2 solution, numbered them A1–A9, added 2 μL 1*Rection Buffer and 4 μL PDE2 into A10, added 2 μL compound solution and 4 μL 1*Rection Buffer to A11, added 6 μL 1*Rection Buffer to A13, and ensured the three groups are parallel to each other. […] The reaction time was 0.5 h in the microporous plate thermostatic oscillator.
Anti-Camp Alohascreen Acceptor and Streptavidin Coated Donor Bead were purchased from Perkin Elmer Company according to response volume: 1* Immunoassay Buffer 549.32 μL and 3.70 μL anti-cAMP AlohaScreen Acceptor were collected under dark conditions. We took 1.98 μL Streptavidin coated Donor Bead, mixed well, added 15 μL mixture to each well after 1 h reaction, and reacted it in the dark for 1 h. After the reaction, we tested it with multilabel microplate detector.

For CCCCOc1ccc2c(c1)oc(=O)c1ccccc12 [Compound 1f, 3-butoxy-6H-benzo[c]chromen-6-one], the melting point was 53.6 to 55.5 °C, the “Cell viability of HT-22 cells exposed to corticosterone (result in words)” value (HT-22 cells; 100 μM corticosterone, compound 6.25~25 μM, 24 h, dose-dependent) was “protected cells against corticosterone (CORT)-induced cytotoxicity in a concentration-dependent manner; also recorded: significantly increased cell viability; also recorded: protect HT-22 cells from corticosterone-induced death” and the “Best concentration for increasing HT-22 cell viability” value (HT-22 cells; 100 μM corticosterone, p < 0.01) was 12.5 µM. The “Protective effect on HT-22 cells compared with BAY 60-7550” value (HT-22 cells; comparison with BAY 60-7550 at 1.0 μM) was “similar; also recorded: comparable activity”, the “PDE2 inhibitory activity (result in words)” value (PDE2; enzyme level) was “good PDE2 inhibitory activity” and the IC50 (PDE2; in vitro, Bio-cAMP as substrate, mean of at least three experiments) was 3.67 ± 0.47 µM.
